Square brackets hold non-standard residues; d marks the D form. Peptide text beside a SMILES is read from it. Nle = CCCC[C@H](N)C(=O)O
Key:
MC1-R = target: T1, MC1-R (Mus musculus, UniProt Q01727); assay: Competitive inhibition of 125I-NDP-alpha-MSH binding, B-16 mouse melanoma cell membranes
T1 construct: B-16 mouse melanoma cells (containing MC1-R); endogenous in cells; host or cells: B-16 mouse melanoma cells (membranes)
From the text: (§1) Ac-Nle-Ala-His-D-Phe-Arg-Trp-NH2 is a known receptor-binding sequence for melanotropin receptors. […] A series of metallopeptides based on this sequence were synthesized by inserting a Cys residue after the 2 position and through the n+1 position and complexing the resulting Cys-containing peptide with an Re-oxo metal ion core as described Example 1. The resulting metallopeptides were screened for inhibiting the binding of 125-I-NDP-alpha-MSH radioligand using B-16 mouse melanoma cells for MCR-1 and cloned human MCR-2, -3 and -4 receptor transfected 293 cells.
(§2) The competitive inhibition binding assay was conducted using membranes prepared from hMC3-R, hMC4-R, hMC5-R, and B-16 mouse melanoma cells (containing MC1-R) using 0.4 nM ^125I-NDP-alpha-MSH (New England Nuclear, Boston, Mass., USA) in 50 mM HEPES buffer containing 1 mM MgCl2, 2 mM CaCl2, and 5 mM KCl, at pH 7.2. The assay tube also contained a chosen concentration of the test peptide of this invention, complexed to a rhenium metal ion as indicated, for determining its efficacy in inhibiting the binding of ^125I-NDP-alpha-MSH to its receptor. […] The filter was dried and counted in a gamma counter for remaining radioactivity bound to the membranes. 100% specific binding was defined as the difference in radioactivity (cpm) bound to cell membranes in the absence and presence of 1 μM alpha-MSH. […]

hMC4-R = target: T2, hMC4-R (Homo sapiens, UniProt P32245); assay: Competitive inhibition of 125I-NDP-alpha-MSH binding, hMC4-R membranes
T2 construct: expressed in transfected cells; host or cells: 293 cells
T2 sequence (P32245 whole entry): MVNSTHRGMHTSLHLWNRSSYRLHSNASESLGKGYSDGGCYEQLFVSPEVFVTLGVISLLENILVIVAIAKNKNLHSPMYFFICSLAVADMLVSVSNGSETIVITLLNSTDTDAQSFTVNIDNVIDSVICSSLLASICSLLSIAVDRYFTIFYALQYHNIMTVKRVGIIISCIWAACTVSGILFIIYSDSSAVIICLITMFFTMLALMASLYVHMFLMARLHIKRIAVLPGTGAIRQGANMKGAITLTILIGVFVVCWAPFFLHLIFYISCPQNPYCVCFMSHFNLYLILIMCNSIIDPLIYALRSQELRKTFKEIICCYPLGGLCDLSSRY
From the text: as §1, §2

uPA receptor = target: T3, uPA receptor (Homo sapiens, UniProt Q03405); assay: uPA receptor-binding assay using U937 cells and ATF as competitive ligand; settings: within the Table 1 series
T3 construct: endogenous in cells; host or cells: U937 cells
T3 sequence (Q03405 23-305): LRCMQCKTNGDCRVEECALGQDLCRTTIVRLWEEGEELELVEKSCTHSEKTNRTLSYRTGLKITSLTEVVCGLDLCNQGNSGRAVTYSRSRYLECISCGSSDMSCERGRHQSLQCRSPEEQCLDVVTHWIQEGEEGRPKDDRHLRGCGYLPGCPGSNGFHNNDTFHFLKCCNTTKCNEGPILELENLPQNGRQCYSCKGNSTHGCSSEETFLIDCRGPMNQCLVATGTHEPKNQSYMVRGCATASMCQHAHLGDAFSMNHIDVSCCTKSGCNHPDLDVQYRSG

T1 sequence (Q01727 whole entry): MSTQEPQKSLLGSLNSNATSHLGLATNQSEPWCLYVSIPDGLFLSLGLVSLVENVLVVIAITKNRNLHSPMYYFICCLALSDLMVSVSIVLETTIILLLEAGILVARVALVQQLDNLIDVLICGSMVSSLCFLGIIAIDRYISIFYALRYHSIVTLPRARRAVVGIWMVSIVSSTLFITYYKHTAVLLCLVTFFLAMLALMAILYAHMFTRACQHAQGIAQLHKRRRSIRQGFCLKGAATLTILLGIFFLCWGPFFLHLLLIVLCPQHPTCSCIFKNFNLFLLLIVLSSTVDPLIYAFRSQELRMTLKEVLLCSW

Molecule	Ki (MC1-R) [nM]	Ki (hMC4-R) [nM]	relative potency in uPA receptor binding (uPA receptor)
CCCC[C@H](NC(C)=O)C(=O)N[C@@H](C)C(=O)N[C@@H](Cc1c[nH]cn1)C(=O)N[C@H](Cc1ccccc1)C(=O)N[C@@H](CCCNC(=N)N)C(=O)N[C@@H](Cc1c[nH]c2ccccc12)C(N)=O [Ac-Nle-Ala-His-D-Phe-Arg-Trp-NH2] (Ac-[Nle]AH[dF]RW-NH2)	100	2000	
Ac-Val-Ser-Asn-Lys-Tyr-Phe-Ser-Asn-Ile-His-Cys-Trp-NH2 (Ac-VSNKYFSNIHCW-NH2; not fully specified (bridges); printed as Ac-Val-Ser-Asn-Lys-Tyr-Phe-Ser-Asn-Ile-His-Cys-Trp-NH2; also: oxorhenium(V) N3S1 metal chelate (Re=O)) [SEQ ID NO: 3]			most potent of all these molecules
